Series [1] has as its system T4. Conditions: rats; TCPOBOP at high doses; cited from earlier work.
The test system of series [2] is mouse sulfotransferase genes. Nature of the series: Northern blot analysis of sulfotransferase mRNAs in liver of TCPOBOP-treated mice. Format: in vivo. Conditions: 1 mg/kg i.p.
For series [3], the system named is mouse liver genes differentially expressed in response to CAR activation. Briefly: Affymetrix GeneChip analysis of mouse liver genes differentially expressed after TCPOBOP treatment. Format: in vivo. The procedure: A global analysis of mouse liver genes differentially expressed in response to CAR activation was performed. Changes in mRNA steady state levels were assessed using AFFYMETRIX® chip technology. AFFYMETRIX® GeneChip murine genome assays (Mu11k set), representing greater than 13,000 full-length genes and EST clusters, were used. The primary sequence sources for this set were combined Unigene and TIGR databases. […] TCPOBOP is a potent and selective activator of mouse CAR and a useful chemical tool for in vivo differential gene expression studies.
(§1) In these experiments, three mice were treated with 1 mg/kg TCPOBOP in 5% dimethyl sulfoxide (DMSO) and corn oil, intraperitoneally. Control mice (n—3) received vehicle alone. Each mouse received two injections at 24 hour intervals. Livers were harvested after the second injection. Thus, total treatment time was 28 hours. Total mRNA was isolated from the livers using the Trizol method and probes for hybridization to the Affymetrix chips were prepared from the total mRNA. Results were analyzed by Affymetrix microarray Suite version 4.0 software.

Series [4] deals with genes involved in hepatic thyroid hormone conjugation and transport. Nature of the series: RTQ-PCR of thyroid hormone metabolism genes in liver of TCPOBOP-treated mice. Format: in vivo, mouse. To be noted: 1 mg/kg i.p.
The test system of series [5] is mouse sulfotransferase genes. Briefly: Effect of TCPOBOP on expression of the known mouse sulfotransferase genes (method not specified). Format: in vivo. Conditions: mice, liver. How it is done:
as §1
Since sulfotransferase activity is important in thyroid metabolism, the effect of TCPOBOP on expression of all of the known mouse sulfotransferase genes was examined. The sulfotransferase set examined included N-SULT, SULT-X1, SULT-X2, aryl sulfotransferase, phenyl sulfotransferase, hydroxysteroid sulfotransferase, SULT-B1, and SUTL1E1. Three of these eight sulfotransferase genes were induced by TCPOBOP. […] Sulfotransferase activity coupled with deiodinase type I activity caused an increased proportion of T4 to be converted to rT3 rather than T3.
The expression of several genes examined in the TCPOBOP study was also examined. Of the sulfotransferase genes, SULT-X1, N-SULT, SULT 1E1, SULT 1B1 and aryl sulfotransferase were examined.

The mark [6] stands for this setting: mice, 1 mg/kg i.p., two injections, liver, 28 hours, Affymetrix chip data.

These results are taken from patent US20050106635A1, “Compositions and methods for regulating thyroid hormone metabolism and cholesterol and lipid metabolism via the nuclear receptor car” (priority 2002, published 2005).

For the molecule `Clc1cnc(Oc2ccc(Oc3ncc(Cl)cc3Cl)cc2)c(Cl)c1` [TCPOBOP, 1,4-bis-[2,-(3,5-dichloropyridyloxy)] benzene], in series [1], the “circulating levels of T4” value is given as “decreased circulating levels of T4” and the “glucuronidation of T4” value is “increase in glucuronidation of T4”. In series [2], this molecule registered a N-SULT increase of 11.5 fold and an SULT-X1 increase of 10.0 fold. Also, in series [3] (mice, 1 mg/kg i.p., two injections at 24 hour intervals, liver, total treatment time 28 hours), the “number of genes (of more than 13,000) displaying a 2-fold or greater change in expression” value was 264 genes. Besides, in series [3] (setting [6]), the “CYP2B10 mRNA upregulation in expression” value amounted to 40 fold, the “CYP3A1 mRNA upregulation in expression” value was found to be 20 fold and the “decrease in the gene encoding the Na+/K+ transporting ATPase” value is on record as “greater than 2 fold”. In addition, the “activation of the CAR nuclear receptor” value in series [3] (mouse liver, in vivo differential gene expression study) was “Selective and potent activation”. Also, the “expression of the basolateral transporter mrp3” value in series [4] is “increased the expression”. Further, in series [4] (RTQ-PCR), the “GST mu1-1 increase” value worked out at 2.7 fold, the “GST mu5-5 increase” value was 4.7 fold, the “GST theta 1-1 increase” value came to 2.7 fold and the GST-Y increase is given as 7.5 fold. Moreover, in series [4] (RTQ-PCR), the SULT-X2 increase is given as 30 fold and the “UDP-glucuronysyl transferase 1A1 increase” value is on record as 1.6 fold. In series [5], the “SULT-1B1 mRNA induction” value is listed as “not induced”, the “SULT-1E1 mRNA induction” value is recorded as “not induced” and the “aryl sulfotransferase mRNA induction” value is on record as “not induced”.
